Source: patent EP3875583A1, “GENETIC CASSETTE COMPRISING THE PHT PATHWAY GENES, RECOMBINANT HOST CELLS COMPRISING IT AND THEIR USE IN THE DEGRADATION AND VALORIZATION OF PHTHALATES” (Consejo Superior de Investigaciones Científicas (CSIC), priority 2020, dated 2021)

Legend:
Type in all cases: cell-based
[1] = system: PhtTa-PhtTb TAXI-TRAP transporter; test: [14C]-PA uptake assay in Azoarcus sp. CIB (pIZPHTRAP) cells expressing the transporter; settings: for [14C]-PA uptake after pre-incubation with inhibitor: cells pre-incubated 10 min with 1 mM inhibitor before the transport assay; for [14C]-PA uptake rate, % of the rate in the absence of a competitor substrate: 25 µM [14C]-PA
Experimental: Cells were grown in NB from A600 of 0.1 to A600 of 1.8≈2.0, incubated for 14h, induced by adding 1.0 mM IPTG. Cells were harvested by centrifugation, washed twice in sodium salt and suspended at a cell density of 1090 mg of protein/liter (A600 of 4.0) in sodium salt. […] Phthalate uptake was stopped by diluting the suspensions with 1 mL of ice-cold sodium salt, collecting the cells on a 0.22-µm-pore-size Millipore GSWP nitrocellulose filter, and washing, under suction, the cells with 5 mL of ice-cold sodium salt. The filter was dissolved in 2 ml of scintillation fluid (Cocktail Ready Safe, Beckman) and counted in an LKB Wallac liquid scintillation counter. […]
We have shown above that the phtTa-phtTb transport genes are essential for the anaerobic degradation of PA. To confirm that the phtTa-phtTb genes encode a PA transporter and to determine its biochemical properties, we performed PA uptake experiments at different [^14C]-PA concentrations in Azoarcus sp. […] CIB (pIZPHTRAP), i.e., cells that express the catabolic pht genes as well as the phtTa-phtTb transport genes - the genetic cassette of the invention. […]. […] [^14C]-PA uptake rates were tested in the presence of non-radioactive phthalate isomers as competitors.

A. evansii cells = test: [14C]-PA uptake assay in A. evansii cells grown under nitrate-reducing conditions; settings: Aromatoleum evansii; cells grown anaerobically on PA, exposed to 1 mM inhibitor before the [14C]-PA transport assay; read-out: PA transport capacity retained
Experimental: Cells were grown in NB from A600 of 0.1 to A600 of 1.8≈2.0, incubated for 14h, induced by adding 1.0 mM IPTG. Cells were harvested by centrifugation, washed twice in sodium salt and suspended at a cell density of 1090 mg of protein/liter (A600 of 4.0) in sodium salt. The uptake of radioactive o-phthalate into cells was followed in a reaction mixture containing 50 µL of prewarmed cells (at 30°C for 5 min) and 50 µL of 250 µM [^14C]-o-phthalate. […] Phthalate uptake was stopped by diluting the suspensions with 1 mL of ice-cold sodium salt, collecting the cells on a 0.22-µm-pore-size Millipore GSWP nitrocellulose filter, and washing, under suction, the cells with 5 mL of ice-cold sodium salt. The filter was dissolved in 2 ml of scintillation fluid (Cocktail Ready Safe, Beckman) and counted in an LKB Wallac liquid scintillation counter. […] To test the transporter's specificity the assays were performed according to the standard procedure but adding different unlabeled substrates: o-phthalate (250 mM), isophthalate (250 mM), terephthalate (250 mM).
To study PA transport in denitrifying bacteria expressing the pht peripheral pathway, we used A. evansii cells grown anaerobically in MC medium containing 5 mM benzoate or 5 mM PA. Cells suspended in sodium salt were incubated with 25 µM [^14C]-PA, and a time-course of the amount of [^14C]-PA incorporated into the cells was determined. […]

boxB2 gene = test: real-time RT-PCR gene expression in C. necator H16 (pIZPHTRAP) cells; settings: cells grown on 3 mM PA compared with 18 mM pyruvate (control)
Experimental: (§1) Cupriavidus necator H16 and Azoarcus sp. CIB cells harboring plasmid pIZPHTRAP were grown aerobically on PA-, benzoate- or pyruvate-containing MC medium until the culture reached to the end of the exponential phase. Cells were lysed in TE buffer (10 mM Tris-HCI, pH 7.5, 1 mM EDTA) containing 50 mg ml^-1 lysozyme. Total RNA was extracted using a High Pure RNA isolation kit (Roche), and then it was DNase-treated with a Turbo DNase kit (Ambion). The concentration and purity of the RNA samples were assessed using a Nanophotometer Pearl (Implen) according to the manufacturer's protocols, and by testing the absence of DNA through PCR amplification. Synthesis of total cDNA was performed by using the Transcriptor First Strand cDNA Synthesis kit (Roche) in 20-µl reactions containing 1 µg of RNA, 1 mM concentration of each dNTP, 10 units of reverse transcriptase, 20 units of Protector RNase Inhibitor, and 60 µM random hexamers as primers in the buffer provided by the manufacturer. The RNA and hexamers were initially heated at 65 °C for 10 min and following the addition of the rest of the components, samples were incubated at 25°C for 10 min and then at 55°C for 30 min. Reactions were terminated by incubation at 85°C for 5 min. In standard RT-PCR reactions, the cDNA was amplified with 1 unit of AmpliTaq DNA polymerase (Biotools) and […] concentrations of the corresponding primer pairs of the boxB gene from Azoarcus sp. CIB (Table 2). […] For relative quantification of the fluorescence values, a calibration curve was constructed by sevenfold serial dilutions of a C. necator H16 genomic DNA sample ranging from 1 ng to 0.5 x10-7 ng. […]
(§2) To confirm that C. necator H16 (pIZPHTRAP) was degrading PA via the box pathway, we analyzed the expression of some marker genes of the classical ben-cat pathway, e.g. benA gene, and the hybrid box pathway, e.g., boxB1 (for cluster box1) and boxB2 (for cluster box2) (Fig. 5C). qRT-PCR gene expression studies of C. necator H16 (pIZPHTRAP) cells grown on PA were compared with those of cells grown on pyruvate (control). […]

benA gene = test: as above; settings: cells grown on 3 mM PA compared with 18 mM pyruvate (control); result in words
Experimental: as §1, §2

boxB1 gene = test: as above; settings: cells grown on 3 mM PA compared with 18 mM pyruvate (control)
Experimental: as §1, §2

[2] = system: Azoarcus sp. CIB (pIZPHTRAP) strain
[3] = system: C. necator H16 (pIZPHTRAP) cells; test: PHB content by GC-MS of the methanolysed polyester, aerobic bioconversion; settings: cells grown aerobically on the substance as sole carbon source (3 mM), MC medium, 30°C, stationary phase

C(=NC1CCCCC1)=NC1CCCCC1 [DCCD, 1,3-dicyclohexylcarbodiimide, reference compound]
[14C]-PA uptake after pre-incubation with inhibitor ([1]; result in words): did not decrease
activity at 1000 µM (A. evansii cells): > 80%

O=[N+]([O-])c1ccc(O)c([N+](=O)[O-])c1 [DNP, 2,4-dinitrophenol, reference compound]
[14C]-PA uptake after pre-incubation with inhibitor ([1]; result in words): completely inhibited

O=C(O)c1ccccc1C(=O)O [PA, o-phthalate]
uptake rate of 25 µM [14C]-PA with competitor ([1]; 250 µM unlabeled competitor, result in words): completely inhibited
Km ([1]; Azoarcus sp. CIB (pIZPHTRAP) cells, read-out: transport affinity (Km)): 15 µM
saturation kinetics ([1]; PA concentration at saturation, Azoarcus sp. CIB (pIZPHTRAP) cells): about 20 µM
maximum uptake rate ([1]; [14C]-PA 5 to 25 µM, Azoarcus sp. CIB (pIZPHTRAP) cells): about 156 ± 14 pmol min^-1 mg protein^-1
fold induction at 3000 µM (boxB2 gene): ~400
basal expression of the benA gene (benA gene): similar
fold induction at 3000 µM (boxB1 gene): ~40
PHB production efficiency, lower than that of the recombinant C. necator H16 strain [2]: 5 fold

O=C(O)c1ccccc1 [benzoate]
PHB accumulated, of the total cell dry weight [3]: 14%

O=C(O)c1cccc(C(=O)O)c1 [isophthalate, reference compound]
[14C]-PA uptake rate, % of the rate in the absence of a competitor substrate ([1]; 250 µM unlabeled competitor): 50%

O=C(O)c1ccc(C(=O)O)cc1 [terephthalate, reference compound]
[14C]-PA uptake rate, % of the rate in the absence of a competitor substrate ([1]; 250 µM unlabeled competitor): 60%
